Assay results as given in ChEMBL document CHEMBL3507680, “University of Dundee, Gates Library screen for HepG2 cell viability”.

Assay: Human HepG2 cell viability assay in 384 well format
Assay type: toxicity, cell-based
Set-up: dose 125 nL, time 70.5 hour; cytotoxicity at 70.5 h: concentration not given beside the values
Conditions: HepG2 cells, read-out: Inhibition

Going from O=C(c1ccno1)N1CCC2(CC1)C(=O)Nc1ccccc12 to O=C(c1cscn1)N1CC[C@H]2[C@@H]1CCC(=O)N2c1ccccc1, the cytotoxicity at 70.5 h rises from -6.37% to 1.24%.

Compared with Cc1ccc(O)c(C(=O)N2CCOCC2c2c(C)n[nH]c2C)c1 (stereo not given), Cc1n[nH]c(C)c1-c1cc(-c2cccc(O)c2)nc(N)c1C#N is lower in cytotoxicity at 70.5 h: -1.53% for the first, -8.76% for the second.

First: CCSCc1nc(O)c2nnn(C3CCN(Cc4ccoc4)CC3)c2n1
Second: CCc1nc(C2CCCN2Cc2noc(Cc3ccccc3)n2)no1 (stereo not given)
The cytotoxicity at 70.5 h of the first is lower: -14.9% for the first, -7.3% for the second.

Compared with CS(=O)(=O)N1CCC(Oc2cnccn2)CC1, CCS(=O)(=O)N1CCCC2(COCCN(c3cnccn3)C2)C1 (stereo not given) is higher in cytotoxicity at 70.5 h: -5.72% for the first, -2.48% for the second.

Going from CCS(=O)(=O)Nc1cnn(Cc2cccc(F)c2)c1 to CS(=O)(=O)NCc1nnc2n1CCN(Cc1cccnc1)C2, the cytotoxicity at 70.5 h rises from -4.79% to 18.3%.

First: CCC(C)c1csc(NC(=O)c2sc(-c3nnc[nH]3)nc2C)n1 (stereo not given)
Second: CCN(Cc1ccco1)C(=O)NCc1nnc2n1CCC2
The cytotoxicity at 70.5 h of the first is higher: -9.94% for the first, -13.2% for the second.

First: CCCc1nnc(N(C)CC2CCN(CC(C)C)C2)o1 (stereo not given)
Second: CC(C)c1nc(CN(C)C2CCN(CC(F)(F)F)C2)no1 (stereo not given)
The cytotoxicity at 70.5 h of the first is lower: -1.56% for the first, 1.98% for the second.

Going from CN[C@@H]1CCC[C@@H](Oc2ccccc2Oc2ccc(C)cc2)[C@@H]1O to CN1CCC(N(CCc2ccccc2)C(=O)c2ccc(C#N)cc2)CC1, the cytotoxicity at 70.5 h falls from 22.2% to -7.31%.

Going from CN1CCN(CCCOc2ccccc2CN2C[C@H]3CC[C@H]2C3)CC1 to Cc1cccc2cc(CN3CCC(O)(CN4CCCC4)CC3)c(=O)[nH]c12, the cytotoxicity at 70.5 h falls from 17.4% to -0.171%.

Compared with Cc1nc(CNC(C(=O)N2CCOCC2)C(C)C)no1 (stereo not given), O=C(Cn1nc(C(F)(F)F)c(Br)c1C1CC1)N1CCOCC1 is higher in cytotoxicity at 70.5 h: -6.16% for the first, -5.88% for the second.

First: O=C(CN1CCC(c2ccnn2CCO)CC1)NCC1CC1
Second: COCCOC(=O)N1CCC(c2nccn2CC2CC2)CC1
The cytotoxicity at 70.5 h of the first is higher: 10.7% for the first, -4.36% for the second.

Going from Cc1cc(C)n(C2CCN(Cc3c(-c4cc(C)on4)nn(C)c3Cl)C2)n1 (stereo not given) to Cc1noc(C)c1CN(C)Cn1c(=O)n(C)c2ccccc21, the cytotoxicity at 70.5 h falls from -6.11% to -6.45%.

Compared with CC(=O)NCC(=O)N1CCN(Cc2cccnc2)c2ncccc2C1, COCc1ncc(CN2CC[C@@H](NC(=O)c3cccnc3)[C@H](O)C2)cn1 is higher in cytotoxicity at 70.5 h: -15.1% for the first, 20.2% for the second.

Compared with Clc1cccc2c3c([nH]c12)CCN(Cc1cc2n(n1)CCCNC2)C3, O=C1CN(CCCNS(=O)(=O)c2cccc(C(=O)NC3CC3)c2)CCN1 is lower in cytotoxicity at 70.5 h: 35.7% for the first, -5.93% for the second.

Going from Clc1cccc(Cl)c1CNCCOc1ccccn1 to CC1=C(C(=O)NCc2cccnc2-n2cnc3ccccc32)OCCO1, the cytotoxicity at 70.5 h falls from 11.6% to -0.825%.

First: Cc1cnc(C(=O)N2CCN(c3ncc4c(n3)CCOC4)CC2)cn1
Second: Cc1cc(CNc2ccc(C(=O)N3CCc4ccccc43)cn2)on1
The cytotoxicity at 70.5 h of the first is lower: -1.26% for the first, -1.24% for the second.

Compared with Cc1ccc(C)c(OCCNC(=O)[C@@H]2CCCCN2)c1, N#CCCNC(=O)CSc1ccc(F)cc1F is lower in cytotoxicity at 70.5 h: -5.85% for the first, -5.86% for the second.

First: N#Cc1ccc(N2CCCN(c3nccs3)CC2)nc1
Second: Cc1nc(C)n(CC2CCCN2c2ccnc(-c3ccccc3)n2)n1 (stereo not given)
The cytotoxicity at 70.5 h of the first is higher: 1.75% for the first, -6.3% for the second.

Going from Cc1cccnc1CSCCCNS(C)(=O)=O to CCCC(=O)N1CCCC(c2cc3cccnc3c(O)n2)C1 (stereo not given), the cytotoxicity at 70.5 h falls from -5.33% to -13.1%.

First: CCC1CNCc2cc3c(C)ccc(C)c3nc2O1 (stereo not given)
Second: CC(C)(C)C(=O)N[C@H]1CC[C@H](Nc2nccc(-c3ccncc3)n2)C1
The cytotoxicity at 70.5 h of the first is higher: -1.78% for the first, -6.97% for the second.

First: CN1CCN(S(=O)(=O)c2ccc(C(=O)N3CC[C@@H](O)C3)cc2)CC1=O
Second: NC1CCN(S(=O)(=O)c2ccc(C(=O)N3CCSCC3)cc2)C1 (stereo not given)
The cytotoxicity at 70.5 h of the first is higher: -5.98% for the first, -9.37% for the second.

Compared with O=C(C1CCOC1)N1CC2(CCN(c3ccccc3)C2)C1 (stereo not given), O=C(C1CCOCC1)N1CCO[C@H]2[C@H](OCC3CC3)CC[C@@H]21 is higher in cytotoxicity at 70.5 h: -0.441% for the first, 2.42% for the second.

CNC(=O)c1cccc(CNC(C)c2cc(Cl)ccc2OC)c1 (stereo not given) showed a cytotoxicity at 70.5 h of -2.03%.
